Literature values as cited in US12297168B2, “Compounds useful for treating liver diseases” (ABIONYX PHARMA SA, priority 2019, dated 2025).

Test system: NASH resolution without worsening of fibrosis
Details: Phase 3 trial, adults with NASH and fibrosis (interim analysis, RESOLVE-IT)

## CSc1ccc(C(=O)/C=C/c2cc(C)c(OC(C)(C)C(=O)O)c(C)c2)cc1 [elafibranor]
  effect on the primary endpoint of NASH resolution without worsening of fibrosis: did not demonstrate a statistically significant effect
